Experimental data from patent publication US11427548B2 (Arvinas Operations, Inc., priority 2015, dated 2022).
Like-named read-outs stand apart in the source and are kept apart here.

Molecular target: T1, Androgen Receptor (Homo sapiens, UniProt P10275)
T1 construct: endogenous in cells; host or cells: VCaP cells
T1 sequence (P10275 1-920): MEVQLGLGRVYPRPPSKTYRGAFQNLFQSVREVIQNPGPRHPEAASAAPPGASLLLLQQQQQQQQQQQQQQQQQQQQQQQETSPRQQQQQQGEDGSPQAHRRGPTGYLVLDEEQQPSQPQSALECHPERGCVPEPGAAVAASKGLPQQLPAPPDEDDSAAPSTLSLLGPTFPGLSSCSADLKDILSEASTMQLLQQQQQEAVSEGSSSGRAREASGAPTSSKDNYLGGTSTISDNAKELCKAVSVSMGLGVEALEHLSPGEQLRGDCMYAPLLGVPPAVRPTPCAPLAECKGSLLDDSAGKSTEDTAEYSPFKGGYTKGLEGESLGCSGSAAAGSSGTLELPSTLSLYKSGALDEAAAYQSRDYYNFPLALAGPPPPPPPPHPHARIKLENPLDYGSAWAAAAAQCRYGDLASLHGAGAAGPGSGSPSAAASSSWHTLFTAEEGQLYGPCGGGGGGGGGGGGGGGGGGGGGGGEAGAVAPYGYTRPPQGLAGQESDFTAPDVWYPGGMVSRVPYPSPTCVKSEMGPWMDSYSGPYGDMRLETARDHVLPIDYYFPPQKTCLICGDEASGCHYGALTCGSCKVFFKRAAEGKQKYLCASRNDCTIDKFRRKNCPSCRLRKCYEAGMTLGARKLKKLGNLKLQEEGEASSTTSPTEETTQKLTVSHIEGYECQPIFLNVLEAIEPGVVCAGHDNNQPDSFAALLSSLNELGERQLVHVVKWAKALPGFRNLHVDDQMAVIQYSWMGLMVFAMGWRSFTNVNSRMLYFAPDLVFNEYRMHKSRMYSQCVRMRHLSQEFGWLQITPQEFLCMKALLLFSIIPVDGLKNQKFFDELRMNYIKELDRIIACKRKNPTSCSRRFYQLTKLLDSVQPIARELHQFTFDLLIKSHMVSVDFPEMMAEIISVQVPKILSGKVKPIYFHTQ
Test: Androgen Receptor ELISA assay (PathScan AR ELISA) in VCaP cells: AR degradation, Dmax and DC50
Assay type: cell-based
Details: for Dmax: VCaP, read-out: VCaP Dmax (%); for DC50: read-out: VCaP DC50
Summary of the method: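 VCaP cells in phenol red-free RPMI with 5% charcoal-stripped FBS were grown at least 3 days, then given compound as 7 half-log doses in 0.1% DMSO with 0.1 nM R1881 for 24 h. Lysates went into a sandwich AR ELISA with TMB read at 450 nm.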

[1] = concentration that caused 50% Androgen Receptor degradation, VCaP cells

For `Cc1ncsc1-c1ccc(CNC(=O)[C@@H]2C[C@@H](O)CN2C(=O)[C@@H](NC(=O)CCOCCOc2ccc(-c3ccc(N4C(=S)N(c5ccc(C#N)c(C(F)(F)F)c5)C(=O)C4(C)C)cc3)nc2)C(C)(C)C)cc1` [Example 87], the Dmax was 26 to 50% and the DC50 (concentration that caused 50% Androgen Receptor degradation, VCaP cells (Table 32)) was < 50 nM.
For `Cc1ncsc1-c1ccc([C@H](C)NC(=O)[C@@H]2C[C@@H](O)CN2C(=O)[C@@H](NC(=O)CN2CCN(CCCc3ccc(C(=O)N[C@H]4C(C)(C)[C@H](Oc5ccc(C#N)c(Cl)c5)C4(C)C)cn3)CC2)C(C)(C)C)cc1` [Example 837, N-((1r,3r)-3-(3-chloro-4-cyanophenoxy)-2,2,4,4-tetramethylcyclobutyl)-6-(3-(4-(2-(((S)-1-((2S, 4R)-4-hydroxy-2-(((S)-1-(4-(4-methylthiazol-5-yl)phenyl)ethyl)carbamoyl)pyrrolidin-1-yl)-3,3-dimethyl-1-oxobutan-2-yl)amino)-2-oxoethyl)piperazin-1-yl)propyl) nicotinamide], the DC50 (VCaP cells, Table 36) was < 50 nM and the Dmax (VCaP cells, Table 36) was > 71%.
With `Cc1ncsc1-c1ccc([C@H](C)NC(=O)[C@@H]2C[C@@H](O)CN2C(=O)[C@@H](NC(=O)Cc2ccnc(N3CCN(c4ccc(C(=O)N[C@H]5C(C)(C)[C@H](Oc6ccc(C#N)c(Cl)c6)C5(C)C)cn4)CC3)c2)C(C)(C)C)cc1` [Example 644, N-((1r,3r)-3-(3-chloro-4-cyanophenoxy)-2,2,4,4-tetramethylcyclobutyl)-6-(4-(4-(2-(((S)-1-((2S,4R)-4-hydroxy-2-(((S)-1-(4-(4-methylthiazol-5-yl)phenyl)ethyl)carbam-oyl)pyrrolidin-1-yl)-3,3-dimethyl-1-oxobutan-2-yl)amino)-2-oxoethyl)pyridin-2-yl)piperazin-1-yl)nicotinamide] the DC50 (VCaP cells, Table 36) was < 50 nM and the Dmax (VCaP cells, Table 36) was > 71%.
`Cc1ncsc1-c1ccc([C@H](C)NC(=O)[C@@H]2C[C@@H](O)CN2C(=O)[C@@H](NC(=O)CNC(=O)c2ccc(Oc3ccc(C(=O)N[C@H]4C(C)(C)[C@H](Oc5ccc(C#N)c(Cl)c5)C4(C)C)cn3)cc2)C(C)(C)C)cc1` [Example 448] was tested, and the DC50 (VCaP cells, Table 35) was < 50 nM and the Dmax (VCaP cells, Table 35) was > 71%.
With `Cc1ncsc1-c1ccc(CNC(=O)[C@@H]2C[C@@H](O)CN2C(=O)[C@@H](NC(=O)COCCCOCCCCOc2ccc(N3C(=S)N(c4ccc(C#N)c(C(F)(F)F)c4)C(=O)C3(C)C)cn2)C(C)(C)C)cc1` [Example 40, (2S,4R)-1-[(2S)-2-[2-(3-{4-[(5-{3-[4-cyano-3-(trifluoromethyl)phenyl]-5,5-dimethyl-4-oxo-2-sulfanylideneimidazolidin-1-yl}pyridin-2-yl)oxy]butoxy}propoxy)acetamido]-3,3-dimethylbutanoyl]-4-hydroxy-N-{[4-(4-methyl-1,3-thiazol-5-yl)phenyl]methyl}pyrrolidine-2-carboxamide] the Dmax was 51 to 70% and the DC50 [1] was < 50 nM.
In the case of `Cc1ncsc1-c1ccc([C@H](C)NC(=O)[C@@H]2C[C@@H](O)CN2C(=O)[C@@H](NC(=O)COCCN2CCN(c3ccc(C(=O)N[C@H]4C(C)(C)[C@H](Oc5ccc(C#N)c(Cl)c5)C4(C)C)cc3)CC2)C(C)(C)C)cc1` [Example 438], the DC50 (VCaP cells, Table 35) is reported as < 50 nM and the Dmax (VCaP cells, Table 35) is reported as > 71%.
`Cc1ncsc1-c1ccc([C@H](CO)NC(=O)[C@@H]2C[C@@H](O)CN2C(=O)[C@@H](NC(=O)CCCCN2CCN(c3ccc(C(=O)N[C@H]4C(C)(C)[C@H](Oc5ccc(C#N)c(Cl)c5)C4(C)C)cn3)CC2)C(C)(C)C)cc1` [Example 780, N-((1r,3r)-3-(3-chloro-4-cyanophenoxy)-2,2,4,4-tetramethylcyclobutyl)-6-(4-(5-(((S)-1-((2S,4R)-4-hydroxy-2-(((R)-2-hydroxy-1-(4-(4-methylthiazol-5-yl)phenyl)ethyl)carbamoyl)pyrrolidin-1-yl)-3,3-dimethyl-1-oxobutan-2-yl)amino)-5-oxopentyl)piperazin-1-yl)nicotinamide] was tested, and the DC50 (VCaP cells, Table 36) was < 50 nM and the Dmax (VCaP cells, Table 36) was 26 to 50%.
For `Cc1ncsc1-c1ccc([C@H](C)NC(=O)C2C[C@@H](O)CN2C(=O)C(NC(=O)CCCN2CCN(c3ccc(C(=O)N[C@H]4C(C)(C)[C@H](Oc5ccc(C#N)c(Cl)c5)C4(C)C)cn3)CC2)C(C)(C)C)cc1` (stereo partly drawn) [Example 768, N-((1r,3r)-3-(3-chloro-4-cyanophenoxy)-2,2,4,4-tetramethylcyclobutyl)-6-(4-(4-(((S)-1-((2S,4R)-4-hydroxy-2-(((S)-1-(4-(4-methylthiazol-5-yl)phenyl)ethyl)carbam-oyl)pyrrolidin-1-yl)-3,3-dimethyl-1-oxobutan-2-yl)amino)-4-oxobutyl)piperazin-1-yl)nicotinamide], the DC50 (VCaP cells, Table 36) was > 501 nM and the Dmax (VCaP cells, Table 36) was < 25%.
In the case of `CC(C)(C)[C@H](NC(=O)COCC#CC#CCOc1ccc(N2C(=S)N(c3ccc(C#N)c(Cl)c3)C(=O)C2(C)C)cc1F)C(=O)N1C[C@H](O)C[C@H]1C(=O)NCc1ccc(-c2cnco2)cc1` [Example 60, (2S,4R)-1-[(2S)-2-{2-[(6-{4-[3-(3-chloro-4-cyanophenyl)-5,5-dimethyl-4-oxo-2-sulfanylideneimidazolidin-1-yl]-2-fluorophenoxy}hexa-2,4-diyn-1-yl)oxy]acetamido}-3,3-dimethylbutanoyl]-4-hydroxy-N-{[4-(1,3-oxazol-5-yl)phenyl]methyl}pyrrolidine-2-carboxamide], the Dmax is reported as 51 to 70% and the DC50 [1] is reported as 51 to 500 nM.
`Cc1ncsc1-c1ccc(C(NC(=O)[C@@H]2C[C@@H](O)CN2C(=O)C(NC(=O)COCCN2CCN(c3ccc(C(=O)N[C@H]4C(C)(C)[C@H](Oc5ccc(C#N)c(C(F)(F)F)c5)C4(C)C)cn3)CC2)C(C)(C)C)C2COC2)cc1` (stereo partly drawn) [Example 704, N-((1r,3r)-3-(4-cyano-3-(trifluoromethyl)phenoxy)-2,2,4,4-tetramethylcyclobutyl)-6-(4-(2-(2-(((S)-1-((2S,4R)-4-hydroxy-2-(((R)-(4-(4-methylthiazol-5-yl)phenyl)(oxetan-3-yl)methyl)carbamoyl)pyrrolidin-1-yl)-3,3-dimethyl-1-oxobutan-2-yl)amino)-2-oxoethoxy)ethyl)pipera-zin-1-yl)nicotinamide] was tested, and the DC50 (VCaP cells, Table 36) was > 501 nM and the Dmax (VCaP cells, Table 36) was < 25%.
`Cc1ncsc1-c1ccc(CNC(=O)[C@@H]2C[C@@H](O)CN2C(=O)[C@@H](NC(=O)COCC2CCN(c3ccc(C(=O)N[C@H]4C(C)(C)[C@H](Oc5ccc(C#N)c(Cl)c5)C4(C)C)cc3)CC2)C(C)(C)C)cc1` [Example 410] was tested, and the DC50 (VCaP cells, Table 34) was < 50 nM and the Dmax (VCaP cells, Table 34) was > 71%.
In the case of `CC(C)(C)[C@H](NC(=O)COCCCCCNc1ccc(C(=O)N[C@H]2C(C)(C)[C@H](Oc3ccc(C#N)c(Cl)c3)C2(C)C)cc1)C(=O)N1C[C@H](O)C[C@H]1C(=O)NCc1ccc(-c2cnccn2)cc1` [Example 532], the DC50 (VCaP cells, Table 35) is reported as < 50 nM and the Dmax (VCaP cells, Table 35) is reported as 51 to 70%.
For `CC(C)(C)[C@H](NC(=O)COCCCOCCCCCOc1ccc(N2C(=S)N(c3ccc(C#N)c(C(F)(F)F)c3)C(=O)C2(C)C)cc1)C(=O)N1C[C@H](O)C[C@H]1C(=O)NCc1ccc(C#N)cc1` [Example 15, (2S,4R)-1-[(2S)-2-[2-(3-{[5-(4-{3-[4-cyano-3-(trifluoromethyl)phenyl]-5,5-dimethyl-4-oxo-2-sulfanylideneimidazolidin-1-yl}phenoxy)pentyl]oxy}propoxy)acetamido]-3,3-dimethylbutanoyl]-N-[(4-cyanophenyl)methyl]-4-hydroxypyrrolidine-2-carboxamide], the Dmax was 26 to 50% and the DC50 [1] was < 50 nM.
`Cc1ncsc1-c1ccc([C@H](C)NC(=O)[C@@H]2C[C@@H](O)CN2C(=O)C(NC(=O)COCCCCCNc2ccc(C(=O)N[C@H]3C(C)(C)[C@@H](Oc4ccc(C#N)c(Cl)c4)C3(C)C)cc2)C(C)(C)C)cc1` (stereo partly drawn) [Example 455] was tested, and the DC50 (VCaP cells, Table 35) was > 501 nM and the Dmax (VCaP cells, Table 35) was 51 to 70%.
In the case of `Cc1ncsc1-c1ccc([C@H](C)NC(=O)C2C[C@@H](O)CN2C(=O)[C@@H](NC(=O)COCCN2C[C@@H](C)N(c3ccc(C(=O)N[C@H]4C(C)(C)[C@H](Oc5ccc(C#N)c(Cl)c5)C4(C)C)cn3)[C@@H](C)C2)C(C)(C)C)cc1` (stereo partly drawn) [Example 813, N-((1r,3R)-3-(3-chloro-4-cyanophenoxy)-2,2,4,4-tetramethylcyclobutyl)-6-((2S,6R)-4-(2-(2-(((2S)-1-((4R)-4-hydroxy-2-(((S)-1-(4-(4-methylthiazol-5-yl)phenyl)ethyl)carbamoyl)pyrrolidin-1-yl)-3,3-dimethyl-1-oxobutan-2-yl)amino)-2-oxoethoxy)ethyl)-2,6-dimethylpiperazin-1-yl)nicotinamide], the DC50 (VCaP cells, Table 36) is reported as < 50 nM and the Dmax (VCaP cells, Table 36) is reported as > 71%.
